In brackets after ≈: the same amount, converted by molar mass.
Experiments:
[1] = system: Vero; experiment: Cytotoxicity against Chlorocebus aethiops (African green monkey) Vero cells up to 62.5 ug/ml; assay type: cell-based; details: chlorocebus sabaeus
[2] = system: Mycobacterium tuberculosis; experiment: Antimycobacterial activity against Mycobacterium tuberculosis H37Rv ATCC 27294; assay type: functional
[3] = system: Escherichia coli; experiment: Ratio of ciproflaxacin ED50 to compound ED50 for Escherichia coli NCTC 10418 infected in po dosed CF mouse; assay type: functional
[4] = system: Escherichia coli; experiment: Antibacterial activity against Escherichia coli NCTC 10418 infected in po dosed CF mouse compound administered 1 hr prior and 4 hr post infection; assay type: functional; details: NCTC 10418, po
[5] = molecular target: Human immunodeficiency virus type 1 reverse transcriptase (Human immunodeficiency virus 1, UniProt Q72547); experiment: Inhibition of Human immunodeficiency virus 1 RT using Poly(vC)oligo (dG) as template/primer after 30 min
[6] = Selectivity index, ratio of CC50 for human MT4 cells to EC50 for HIV1 3B infected in MT4 cells; assay type: toxicity, cell-based; details: read-out: Ratio CC50/EC50
[7] = system: Vibrio cholerae; experiment: Antimicrobial activity against Vibrio cholerae 01 after 18 to 20 hr by agar dilution method; assay type: functional; details: 1
[8] = system: Priestia megaterium; experiment: Antimicrobial activity against Bacillus megaterium after 18 to 20 hr by agar dilution method; assay type: functional
[9] = system: Enterobacter; experiment: Antimicrobial activity against Enterobacter after 18 to 20 hr by agar dilution method; assay type: functional
[10] = system: Citrobacter freundii; experiment: Antimicrobial activity against Citrobacter freundii after 18 to 20 hr by agar dilution method; assay type: functional
[11] = system: Salmonella enteritidis; experiment: Antimicrobial activity against Salmonella enterica subsp. enterica serovar Enteritidis after 18 to 20 hr by agar dilution method; assay type: functional
[12] = system: Salmonella typhimurium; experiment: Antimicrobial activity against Salmonella enterica subsp. enterica serovar Typhimurium after 18 to 20 hr by agar dilution method; assay type: functional
[13] = system: Proteus mirabilis; experiment: Antimicrobial activity against Proteus mirabilis after 18 to 20 hr by agar dilution method; assay type: functional
[14] = system: Proteus vulgaris; experiment: Antimicrobial activity against Proteus vulgaris after 18 to 20 hr by agar dilution method; assay type: functional
[15] = system: Edwardsiella tarda; experiment: Antimicrobial activity against Edwardsiella tarda after 18 to 20 hr by agar dilution method; assay type: functional
[16] = system: Escherichia coli; experiment: Antimicrobial activity against Escherichia coli NCTC 10418 after 18 to 20 hr by agar dilution method; assay type: functional
[17] = system: Salmonella typhi; experiment: Antimicrobial activity against Salmonella enterica subsp. enterica serovar Typhi after 18 to 20 hr by agar dilution method; assay type: functional
[18] = system: Salmonella paratyphi; experiment: Antimicrobial activity against Salmonella enterica subsp. enterica serovar Paratyphi A after 18 to 20 hr by agar dilution method; assay type: functional
[19] = system: Vibrio parahaemolyticus; experiment: Antimicrobial activity against Vibrio parahaemolyticus after 18 to 20 hr by agar dilution method; assay type: functional
[20] = system: Vibrio cholerae; experiment: Antimicrobial activity against Vibrio cholerae 0139 after 18 to 20 hr by agar dilution method; assay type: functional; details: 139
[21] = system: Vibrio fluvialis; experiment: Antimicrobial activity against Vibrio fluvialis after 18 to 20 hr by agar dilution method; assay type: functional
[22] = system: Vibrio mimicus; experiment: Antimicrobial activity against Vibrio mimicus after 18 to 20 hr by agar dilution method; assay type: functional
[23] = system: Pseudomonas aeruginosa; experiment: Antimicrobial activity against Pseudomonas aeruginosa after 18 to 20 hr by agar dilution method; assay type: functional
[24] = system: Staphylococcus aureus; experiment: Antimicrobial activity against Staphylococcus aureus after 18 to 20 hr by agar dilution method; assay type: functional
[25] = system: Morganella morganii; experiment: Antimicrobial activity against Morganella morganii after 18 to 20 hr by agar dilution method; assay type: functional
[26] = system: Shigella boydii; experiment: Antimicrobial activity against Shigella boydii after 18 to 20 hr by agar dilution method; assay type: functional
[27] = system: Plesiomonas; experiment: Antimicrobial activity against Plesiomonas after 18 to 20 hr by agar dilution method; assay type: functional
[28] = system: Shigella sonnei; experiment: Antimicrobial activity against Shigella sonnei after 18 to 20 hr by agar dilution method; assay type: functional
[29] = system: Klebsiella pneumoniae; experiment: Antimicrobial activity against Klebsiella pneumoniae after 18 to 20 hr by agar dilution method; assay type: functional
[30] = system: Klebsiella pneumoniae; experiment: Antimicrobial activity against Klebsiella pneumoniae subsp. ozaenae after 18 to 20 hr by agar dilution method; assay type: functional
[31] = system: Mycobacterium tuberculosis; experiment: Antimycobacterial activity against Mycobacterium tuberculosis H37Rv ATCC 27294 at 6.25 ug/ml by MABA; assay type: functional
[32] = Cytotoxicity against Homo sapiens (human) HuH7 cells assessed as cell growth at 50 ug/ml after 3 days by Neutral red assay; assay type: cell-based, Huh-7; details: read-out: Activity
[33] = Cytotoxicity against Homo sapiens (human) CEM cells after 5 days by MTT assay; assay type: cell-based; details: CEM cells (CCRF-CEM)
[34] = system: Human immunodeficiency virus 1; experiment: Antiviral activity against Human immunodeficiency virus 1 IIIB infected CEM cells assessed as protection against viral infection after 6 days by XTT assay; assay type: functional, CCRF-CEM; set-up: concentration or dose not given beside the values
[35] = system: Human immunodeficiency virus 1; experiment: Antiviral activity against Human immunodeficiency virus 1 IIIB infected CEM cells assessed as inhibition of virus-induced cytopathicity after 6 days by XTT assay; assay type: functional, organism-based; details: CCRF-CEM, 144 h
[36] = Cytotoxicity against Homo sapiens (human) MT4 cells after 5 days by MTT assay; assay type: cell-based
[37] = system: Human immunodeficiency virus 1; experiment: Antiviral activity against Human immunodeficiency virus 1 IIIB infected MT4 cells assessed as inhibition of virus-induced cytopathicity after 5 days by MTT assay; assay type: functional, organism-based; details: MT4, 120 h
[38] = system: Hepatitis C virus; experiment: Antiviral activity against Hepatitis C virus BM4-5 infected in Huh7 cells assessed as inhibition of viral RNA replication by phosphor screening method; assay type: functional, Hepacivirus hominis, Huh-7
[39] = system: Human immunodeficiency virus 1; experiment: Antiviral activity against Human immunodeficiency virus 1 IIIB infected MT4 cells assessed as protection against viral infection after 5 days by MTT assay; assay type: functional; set-up: concentration or dose not given beside the values

Structure (SMILES): COc1cc(Cc2cnc(/N=C3\C(=O)N(CN4CCN(c5cc6c(cc5F)c(=O)c(C(=O)O)cn6C5CC5)CC4)c4ccc(Cl)cc43)nc2N)cc(OC)c1OC
- Activity [1]: Non-toxic
- MIC [2]: 3.13 µg/mL (≈ 3.93 µM)
- Ratio ED50 [3]: 2
- ED50 [4]: 0.62 mg/kg
- IC50 [5]: 18.4 µM
- selectivity ratio [6]: > 19
- MIC [7]: 4.88 µg/mL (≈ 6.12 µM)
- MIC [8]: 0.019 µg/mL (≈ 0.0238 µM)
- MIC [9]: 0.0381 µg/mL (≈ 0.0478 µM)
- MIC [10]: 1.22 µg/mL (≈ 1.53 µM)
- MIC [11]: 0.61 µg/mL (≈ 0.766 µM)
- MIC [12]: 0.0047 µg/mL (≈ 0.0059 µM)
- MIC [13]: 0.019 µg/mL (≈ 0.0238 µM)
- MIC [14]: 0.0095 µg/mL (≈ 0.0119 µM)
- MIC [15]: 0.019 µg/mL (≈ 0.0238 µM)
- MIC [16]: 0.0381 µg/mL (≈ 0.0478 µM)
- MIC [17]: 0.305 µg/mL (≈ 0.383 µM)
- MIC [18]: 0.153 µg/mL (≈ 0.191 µM)
- MIC [19]: 0.0763 µg/mL (≈ 0.0957 µM)
- MIC [20]: 0.019 µg/mL (≈ 0.0238 µM)
- MIC [21]: 0.0095 µg/mL (≈ 0.0119 µM)
- MIC [22]: 0.0095 µg/mL (≈ 0.0119 µM)
- MIC [23]: 1.22 µg/mL (≈ 1.53 µM)
- MIC [24]: 4.88 µg/mL (≈ 6.12 µM)
- MIC [25]: 1.22 µg/mL (≈ 1.53 µM)
- MIC [26]: 2.44 µg/mL (≈ 3.06 µM)
- MIC [27]: 1.22 µg/mL (≈ 1.53 µM)
- MIC [28]: 0.31 µg/mL (≈ 0.389 µM)
- MIC [29]: 0.31 µg/mL (≈ 0.389 µM)
- MIC [30]: 4.83 µg/mL (≈ 6.06 µM)
- inhibition at 6.25 µg/mL [31]: 100%
- viability at 72 h, 50 ug/ml [32]: 109%
- CC50 at 120 h [33]: > 200 µg/mL
- Activity [34]: 33.3%
- EC50 [35]: > 200 µg/mL
- CC50 at 120 h [36]: 187 µg/mL (≈ 234 µM)
- EC50 [37]: 9.4 µg/mL (≈ 11.8 µM)
- inhibition (INH) [38]: 86%
- Activity [39]: 101%

Structure (SMILES): CCn1cc(C(=O)O)c(=O)c2cc(F)c(N3CCN(CN4C(=O)/C(=N\c5ncc(Cc6cc(OC)c(OC)c(OC)c6)c(N)n5)c5cc(Cl)ccc54)C(C)C3)c(F)c21 (stereo unspecified)
- Activity [1]: Non-toxic
- MIC [2]: 1.56 µg/mL (≈ 1.91 µM)
- ED50 [4]: 1.25 mg/kg
- selectivity ratio [6]: 3
- MIC [7]: 0.0095 µg/mL (≈ 0.0116 µM)
- MIC [8]: 0.019 µg/mL (≈ 0.0232 µM)
- MIC [9]: 0.0095 µg/mL (≈ 0.0116 µM)
- MIC [10]: 0.0047 µg/mL (≈ 0.00575 µM)
- MIC [11]: 0.0095 µg/mL (≈ 0.0116 µM)
- MIC [12]: 0.0381 µg/mL (≈ 0.0466 µM)
- MIC [13]: 0.0763 µg/mL (≈ 0.0934 µM)
- MIC [14]: 0.153 µg/mL (≈ 0.187 µM)
- MIC [15]: 0.0763 µg/mL (≈ 0.0934 µM)
- MIC [16]: 0.153 µg/mL (≈ 0.187 µM)
- MIC [17]: 0.019 µg/mL (≈ 0.0232 µM)
- MIC [18]: 0.019 µg/mL (≈ 0.0232 µM)
- MIC [19]: 0.0047 µg/mL (≈ 0.00575 µM)
- MIC [20]: 0.0381 µg/mL (≈ 0.0466 µM)
- MIC [21]: 0.019 µg/mL (≈ 0.0232 µM)
- MIC [22]: 0.0381 µg/mL (≈ 0.0466 µM)
- MIC [23]: 0.153 µg/mL (≈ 0.187 µM)
- MIC [24]: 0.0763 µg/mL (≈ 0.0934 µM)
- MIC [25]: 0.153 µg/mL (≈ 0.187 µM)
- MIC [26]: 0.305 µg/mL (≈ 0.373 µM)
- MIC [27]: 1.22 µg/mL (≈ 1.49 µM)
- MIC [28]: 4.88 µg/mL (≈ 5.97 µM)
- MIC [29]: 9.77 µg/mL (≈ 11.9 µM)
- MIC [30]: 19.5 µg/mL (≈ 23.9 µM)
- inhibition at 6.25 µg/mL [31]: 100%
- viability at 72 h, 50 ug/ml [32]: 85%
- CC50 at 120 h [33]: 18.7 µg/mL (≈ 22.9 µM)
- Activity [34]: 48.3%
- EC50 [35]: > 18.7 µg/mL
- CC50 at 120 h [36]: 36.9 µg/mL (≈ 45.2 µM)
- EC50 [37]: 17.2 µg/mL (≈ 21 µM)
- inhibition (INH) [38]: 60%
- Activity [39]: 89%

From ChEMBL document CHEMBL3045426, “Synthesis, Antiviral and Antibacterial Activities of Isatin Mannich Bases” (Med Chem Res, 2005)
